We go through one compound from EP4725957A1, “GROUP OF CYCLIC ALKALINE LIPOPEPTIDE COMPOUNDS, AND PREPARATION METHOD THEREFOR AND USE THEREOF” (Institute of Medicinal Biotechnology, Chinese Academy of …, priority 2023, dated 2024).

Data set [1] is described as follows: Acute toxicity test in healthy mice, single tail vein injection. The format is in vivo. Conditions: mouse, in vivo, iv; ICR mice, single tail vein injection, Bliss method. On the procedure: (§1) Healthy ICR mice aged 5-6 weeks were selected, with 5-10 mice in each group, and administered via a single tail vein injection at an administration volume of 20 mL/kg. In the preliminary test, the drug dose concentrations that caused 100% mortality and no mortality in mice after a single intravenous injection were determined. Based on this dose range, 4-5 dose groups were set up, with a dose ratio of 1:0.5 to 1:0.8 between adjacent groups. The mortality of animals within 7 days after administration was recorded. According to the mortality rate of experimental animals in each group, the median lethal dose (LD50) of the test samples, i.e., the dose causing 50% mortality of the tested animals, was calculated by the Bliss method.

The subject of another data set is Healthy ICR mice. The description is as above. Conditions: within 7 days. It is filed as in vivo. On the procedure: as §1
Data set [2] concerns Pseudomonas aeruginosa ATCC27853. Description: In vivo antibacterial (protection) test in infected mice. The note with it: infected ICR mice; for mortality rate: 7 days observation. From the text:
Pseudomonas aeruginosa ATCC27853 was selected for the determination of in vivo antibacterial activity.
One day before infection, the test bacteria were inoculated onto the corresponding nutrient agar plates and cultured overnight. On the day of infection, single colonies grown on the plates were picked and suspended in sterile normal saline, and the suspension was mixed thoroughly to obtain the original bacterial solution. The bacterial solution was then adjusted to the required concentration with 5% dried yeast powder and prepared freshly prior to use.
Healthy ICR mice were randomly divided into groups, with 5 mice per group, half male and half female. Bacterial solutions of different dilutions were aspirated and injected intraperitoneally into mice at a volume of 0.5 mL per 20 g of body weight. The mortality of mice was recorded within 7 days after infection. The minimum bacterial dose causing 100% mortality in mice was defined as the minimum lethal dose (MLD), which was used as the infection dose for the in vivo protection test.
Drug administration was performed via tail vein injection at 2 h, 8 h, 24 h, and 30 h after infection, with a total of 4 administrations, and the administration volume was 20 mL/kg. For the preparation of drug solutions, Compound 7, together with the control drugs polymyxin B and meropenem, were dissolved in normal saline to the required concentrations for tail vein injection, and all solutions were prepared freshly prior to use.
In the preliminary test, the drug dose concentrations that caused 100% mortality and no mortality in mice after infection with the tested bacteria were determined. Based on this dose range, 4-5 dose groups were established, with a dose ratio of 1:0.5 to 1:0.8 between adjacent groups.
Mice were randomly grouped according to body weight, with 8 mice per group (half male and half female). Each mouse was intraperitoneally infected with the test bacterial solution at a volume of 0.5 mL per 20 g of body weight, followed by tail vein injection at 2 h, 8 h, 24 h, and 30 h after infection. Mice in the blank control group were not infected with bacterial solution but were only given an equal volume of vehicle at an administration volume of 20 mL/kg. The mortality of mice was observed and recorded for 7 consecutive days.
The minimum lethal bacterial concentration of Pseudomonas aeruginosa ATCC27853 for intraperitoneal infection in mice was 4.2 × 10^2 CFU/mL, which was used as the infection dose in the formal test.
Mice in the infection control group were intraperitoneally inoculated with Pseudomonas aeruginosa ATCC27853 bacterial solution at the MLD concentration ([…]). Infection symptoms began to appear 3-4 hours after inoculation, and all 8 animals died within 48 hours (8/8), with a mortality rate of 100%.

[3] abbreviates: tail vein twice daily for 2 days, Bliss method.

Bridge positions count the residues as written; N and C are the ends. Square brackets hold non-standard residues; d marks the D form. Peptide text beside a SMILES is read from it. * marks the point of attachment. Heptanoyl(6-Me) = CC(C)CCCCC(=O)*; Dab = NCC[C@H](N)C(=O)O; Dap = NC[C@H](N)C(=O)O

Usually LD50 stands for the dose expected to kill half of the subjects tested. Low readings indicate greater toxicity, high ones lower toxicity. A word on the ED50: it is the dose that gives a 50% effect, or the effect in half of the subjects. Low values mean greater potency, high ones weaker potency. The compound `CC(C)CCCCC(=O)N[C@@H](CCN)C(=O)N[C@H](C(=O)N[C@@H](CN)C(=O)N[C@H]1CCNC(=O)[C@H]([C@@H](C)O)NC(=O)[C@H](CCN)NC(=O)[C@H](CCN)NC(=O)[C@H]([C@@H](C)O)NC(=O)[C@@H](Cc2ccccc2)NC(=O)[C@H](CCN)NC1=O)[C@@H](C)O` [Compound 7, 6-methylheptanoyl-Dab-Thr-Dap-ring(4-10)[Dab-Dab-D-Phe-Thr-Dab-Dab-Thr]] ({Heptanoyl(6-Me)}-[Dab]T[Dap][Dab][Dab][dF]T[Dab][Dab]T; lactam 4-C) yielded an LD50 at 168 h in data set [1] of 24.4 mg/kg. For the same compound, the mortality rate in the data set with Healthy ICR mice (single tail vein injection 15.36 mg/kg) was determined as 0%; in the data set with Healthy ICR mice (single tail vein injection 19.2 mg/kg), 12.5%; in the data set on Healthy ICR mice (single tail vein injection 24 mg/kg), 25%; with Healthy ICR mice (single tail vein injection 30 mg/kg), 100%; in data set [2] (3.4 mg/kg tail vein twice daily for 2 days), 100%; in data set [2] (4.9 mg/kg tail vein twice daily for 2 days) it was 87.5%. In addition, the results for the mortality rate in data set [2] (7 mg/kg tail vein twice daily for 2 days) and in data set [2] (10 mg/kg tail vein twice daily for 2 days) were 37.5% and 0%, respectively. In data set [2] (setting [3]), this compound had an ED5 of 4.54 mg/kg. In data set [2] (setting [3]), this compound registered a 50% effective dose (ED50) of 6.38 mg/kg. For the same compound, the ED95 in data set [2] (setting [3]) is on record as 8.96 mg/kg.
